Experimental data published in patent publication US12084481B2 (priority 2016, dated 2024).

tested on: H^+ currents; conditions: cited from earlier work

| Compound | effect on H^+ currents |
| --- | --- |
| Nc1ccncc1 [4-aminopyridine] | block H^+ currents |
| COc1ccc(CCN(C)CCCC(C#N)(c2cc(OC)c(OC)c(OC)c2)C(C)C)cc1OC (stereo not shown) [D600] | block H^+ currents |
| COc1ccc2c(c1)[C@]13CCCC[C@@H]1[C@H](C2)N(C)CC3 [dextromethorphan] | block H^+ currents |
| CN(C)CCCN1c2ccccc2CCc2ccccc21 [imipramine] | block H^+ currents |
| O=C(O[C@@H]1Cc2c(O)cc(O)cc2O[C@@H]1c1cc(O)c(O)c(O)c1)c1cc(O)c(O)c(O)c1 [EGCG] | block H^+ currents |
| CNCCC(Oc1ccc(C(F)(F)F)cc1)c1ccccc1 (stereo not shown) [fluoxetine] | block H^+ currents |
| CN(C)CCC=C1c2ccccc2CCc2ccccc21 [amitryptiline] | block H^+ currents |
| COc1ccc(CCN(C)CCCC(C#N)(c2ccc(OC)c(OC)c2)C(C)C)cc1OC (stereo not shown) [verapamil] | block H^+ currents |
| N=C(N)NC(=O)c1nc(Cl)c(N)nc1N [amiloride] | block H^+ currents |
| CNCCCN1c2ccccc2CCc2ccccc21 [desipramine] | block H^+ currents |

molecular target: hHv1 (Homo sapiens, UniProt Q96D96); format: cell-based; conditions: not given
Sequence (Q96D96 whole entry): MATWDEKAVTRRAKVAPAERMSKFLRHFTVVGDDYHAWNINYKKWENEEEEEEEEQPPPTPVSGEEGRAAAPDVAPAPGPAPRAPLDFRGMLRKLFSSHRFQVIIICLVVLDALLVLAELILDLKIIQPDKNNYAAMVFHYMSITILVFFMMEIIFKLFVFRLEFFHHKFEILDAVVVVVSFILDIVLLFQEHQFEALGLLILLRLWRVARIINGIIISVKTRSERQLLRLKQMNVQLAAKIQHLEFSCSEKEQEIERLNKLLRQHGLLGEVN

| Compound | Activator/Inhibitor |
| --- | --- |
| GCKGFGDSCADSDDCCETFHCKWVFFTSKFMCRRVWGKD [A6] | ACTIVATOR |
| GCLGDKCADSDDCCETFHCKWVFFTSKFMCRRVWGKD [B1] | ACTIVATOR |

tested on: human blood cells; format: cell-based; conditions: 100 μM

| Compound | production of ROS |
| --- | --- |
| [Zn] [zinc] | blocks ROS production to background (control) levels |

molecular target: Hv1 channels (Homo sapiens, UniProt Q96D96); conditions: cited from earlier work
Sequence (Q96D96 whole entry): as the sequence (Q96D96 whole entry) above

| Compound | effect on Hv1 proton currents | concentrations inhibiting Hv1 |
| --- | --- | --- |
| CCCCCCCC/C=C\CCCCCCCC(=O)O [oleic acid] | enhance Hv1 proton currents |  |
| CCCCC/C=C\C/C=C\C/C=C\C/C=C\CCCC(=O)O [arachidonic acid] | enhance Hv1 proton currents |  |
| ECRYLFGGCKTTSDCCKHLGCKFRDKYCAWDFTFS [hanatoxin] |  | low micromolar |
